Results: PubChem BioAssay (NCI)
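Five concentrations, 48 hours, 96-well plates. GI50: concentration for 50% inhibition of growth. TGI is the concentration that stops growth completely.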

Key:
Experiment in all cases: inhibition of tumour cell growth, NCI panel, 48 h
HCC-2998 colon = tested on: HCC-2998 colon
MOLT-4 leukemia = tested on: MOLT-4 leukemia
MDA-MB-435 = tested on: MDA-MB-435
NCI-H226 lung = tested on: NCI-H226 lung
NCI-H522 lung = tested on: NCI-H522 lung
HCT-15 colon = tested on: HCT-15 colon
DU-145 prostate = tested on: DU-145 prostate
NCI-H460 lung = tested on: NCI-H460 lung
CAKI-1 renal = tested on: CAKI-1 renal
EKVX NSCLC = tested on: EKVX NSCLC
SF-539 CNS = tested on: SF-539 CNS
RPMI-8226 leukemia = tested on: RPMI-8226 leukemia
RXF 393 renal = tested on: RXF 393 renal
A498 renal = tested on: A498 renal
SF-295 CNS = tested on: SF-295 CNS
U251 CNS = tested on: U251 CNS
MDA-MB-231 breast = tested on: MDA-MB-231 breast
OVCAR-3 ovarian = tested on: OVCAR-3 ovarian
UO-31 renal = tested on: UO-31 renal
KM12 colon = tested on: KM12 colon
HOP-62 NSCLC = tested on: HOP-62 NSCLC
MALME-3M melanoma = tested on: MALME-3M melanoma
ACHN renal = tested on: ACHN renal
SNB-19 CNS = tested on: SNB-19 CNS
OVCAR-5 ovarian = tested on: OVCAR-5 ovarian
A549 NSCLC = tested on: A549 NSCLC
SK-MEL-2 melanoma = tested on: SK-MEL-2 melanoma
MCF7 breast = tested on: MCF7 breast
MDA-N = tested on: MDA-N
SK-OV-3 ovarian = tested on: SK-OV-3 ovarian
NCI-H23 lung = tested on: NCI-H23 lung
UACC-62 melanoma = tested on: UACC-62 melanoma
SN12C renal = tested on: SN12C renal
LOX IMVI melanoma = tested on: LOX IMVI melanoma
SK-MEL-28 melanoma = tested on: SK-MEL-28 melanoma
786-0 renal = tested on: 786-0 renal
SK-MEL-5 melanoma = tested on: SK-MEL-5 melanoma
TK-10 renal = tested on: TK-10 renal
CCRF-CEM leukemia = tested on: CCRF-CEM leukemia
M14 melanoma = tested on: M14 melanoma
K-562 leukemia = tested on: K-562 leukemia
UACC-257 melanoma = tested on: UACC-257 melanoma
NCI/ADR-RES ovarian = tested on: NCI/ADR-RES ovarian
HCT-116 colon = tested on: HCT-116 colon
SW-620 colon = tested on: SW-620 colon
HOP-92 NSCLC = tested on: HOP-92 NSCLC
COLO 205 colon = tested on: COLO 205 colon
OVCAR-4 ovarian = tested on: OVCAR-4 ovarian
SF-268 CNS = tested on: SF-268 CNS
PC-3 prostate = tested on: PC-3 prostate
HS 578T breast = tested on: HS 578T breast
SR leukemia = tested on: SR leukemia
BT-549 breast = tested on: BT-549 breast
T-47D breast = tested on: T-47D breast
IGROV1 ovarian = tested on: IGROV1 ovarian
HL-60(TB) leukemia = tested on: HL-60(TB) leukemia
OVCAR-8 ovarian = tested on: OVCAR-8 ovarian
SNB-75 CNS = tested on: SNB-75 CNS
HT29 colon = tested on: HT29 colon

## CN(C)CC1CN=C(N)O1 (stereo unspecified)
HCC-2998 colon
  TGI: > 100 µM
MOLT-4 leukemia
  TGI: > 100 µM
MDA-MB-435
  TGI: > 100 µM
NCI-H226 lung
  TGI: > 100 µM
NCI-H522 lung
  TGI: > 100 µM
HCT-15 colon
  TGI: > 100 µM
DU-145 prostate
  TGI: > 100 µM
NCI-H460 lung
  TGI: > 100 µM
CAKI-1 renal
  TGI: > 100 µM
EKVX NSCLC
  TGI: > 100 µM
SF-539 CNS
  TGI: > 100 µM
RPMI-8226 leukemia
  TGI: > 100 µM
RXF 393 renal
  TGI: > 100 µM
A498 renal
  TGI: > 100 µM
SF-295 CNS
  TGI: > 100 µM
U251 CNS
  TGI: > 100 µM
MDA-MB-231 breast
  TGI: > 100 µM
OVCAR-3 ovarian
  TGI: > 100 µM
UO-31 renal
  TGI: > 100 µM
KM12 colon
  TGI: > 100 µM
HOP-62 NSCLC
  TGI: > 100 µM
MALME-3M melanoma
  TGI: > 100 µM
ACHN renal
  TGI: > 100 µM
SNB-19 CNS
  TGI: > 100 µM
OVCAR-5 ovarian
  TGI: > 100 µM
A549 NSCLC
  TGI: > 100 µM
SK-MEL-2 melanoma
  TGI: > 100 µM
MCF7 breast
  TGI: > 100 µM
MDA-N
  TGI: > 100 µM
SK-OV-3 ovarian
  TGI: > 100 µM
NCI-H23 lung
  TGI: > 100 µM
UACC-62 melanoma
  TGI: > 100 µM
SN12C renal
  TGI: > 100 µM
LOX IMVI melanoma
  TGI: > 100 µM
SK-MEL-28 melanoma
  TGI: > 100 µM
786-0 renal
  TGI: > 100 µM
SK-MEL-5 melanoma
  TGI: > 100 µM
TK-10 renal
  TGI: > 100 µM
CCRF-CEM leukemia
  TGI: > 100 µM
M14 melanoma
  TGI: > 100 µM
K-562 leukemia
  TGI: > 100 µM
UACC-257 melanoma
  TGI: > 100 µM
NCI/ADR-RES ovarian
  TGI: > 100 µM
HCT-116 colon
  TGI: > 100 µM
SW-620 colon
  TGI: > 100 µM
HOP-92 NSCLC
  TGI: > 100 µM
COLO 205 colon
  TGI: > 100 µM
OVCAR-4 ovarian
  TGI: > 100 µM
SF-268 CNS
  TGI: > 100 µM
PC-3 prostate
  TGI: > 100 µM

## CNC(=O)c1ccc(N2C(=S)N(c3ccc(C#N)c(C(F)(F)F)c3)C(=O)C2(C)C)cc1F
HCC-2998 colon
  GI50: > 40.7 µM
  TGI: > 65.8 µM
MOLT-4 leukemia
  GI50: 33.1 µM
  TGI: > 100 µM
MDA-MB-435
  GI50: 41.9 µM
  TGI: > 79.3 µM
NCI-H226 lung
  GI50: 39.7 µM
  TGI: > 71.9 µM
NCI-H522 lung
  GI50: 50.9 µM
  TGI: > 100 µM
HCT-15 colon
  GI50: 33.2 µM
  TGI: > 89.3 µM
DU-145 prostate
  GI50: 53.9 µM
  TGI: > 100 µM
HS 578T breast
  GI50: > 43.1 µM
  TGI: > 86.8 µM
NCI-H460 lung
  GI50: 28.2 µM
  TGI: > 74.3 µM
CAKI-1 renal
  GI50: 31 µM
  TGI: > 52 µM
EKVX NSCLC
  GI50: 25 µM
  TGI: > 80.5 µM
SF-539 CNS
  GI50: > 48.6 µM
  TGI: > 87.3 µM
RPMI-8226 leukemia
  GI50: 24.4 µM
  TGI: > 80 µM
RXF 393 renal
  GI50: 35.8 µM
  TGI: > 66 µM
SR leukemia
  GI50: 17.9 µM
  TGI: > 100 µM
BT-549 breast
  GI50: 22.3 µM
  TGI: > 73.4 µM
A498 renal
  GI50: > 35.3 µM
  TGI: > 71 µM
SF-295 CNS
  GI50: 28.9 µM
  TGI: > 75.9 µM
U251 CNS
  GI50: 43 µM
  TGI: > 79.7 µM
MDA-MB-231 breast
  GI50: > 38.6 µM
  TGI: > 60.6 µM
OVCAR-3 ovarian
  GI50: 36.5 µM
  TGI: > 84.5 µM
UO-31 renal
  GI50: 8.83 µM
  TGI: 34.9 µM
KM12 colon
  GI50: 48.1 µM
  TGI: > 91.1 µM
HOP-62 NSCLC
  GI50: 25.1 µM
  TGI: > 67.2 µM
MALME-3M melanoma
  GI50: 20.9 µM
  TGI: > 82.1 µM
ACHN renal
  GI50: 22.4 µM
  TGI: > 62.9 µM
SNB-19 CNS
  GI50: > 61.2 µM
  TGI: > 100 µM
T-47D breast
  GI50: 27.9 µM
  TGI: 97 µM
OVCAR-5 ovarian
  GI50: > 47.5 µM
  TGI: > 92.4 µM
A549 NSCLC
  GI50: 33.6 µM
  TGI: > 95.4 µM
SK-MEL-2 melanoma
  GI50: 36.2 µM
  TGI: > 71.9 µM
MCF7 breast
  GI50: 33.9 µM
  TGI: > 82.3 µM
SK-OV-3 ovarian
  GI50: > 51 µM
  TGI: > 93.1 µM
NCI-H23 lung
  GI50: 30.2 µM
  TGI: > 89.6 µM
IGROV1 ovarian
  GI50: 40.3 µM
  TGI: > 100 µM
UACC-62 melanoma
  GI50: 26.9 µM
  TGI: > 72.4 µM
SN12C renal
  GI50: 38.6 µM
  TGI: > 100 µM
LOX IMVI melanoma
  GI50: 36.5 µM
  TGI: > 62.2 µM
SK-MEL-28 melanoma
  GI50: > 51.8 µM
  TGI: > 96.1 µM
786-0 renal
  GI50: > 44.2 µM
  TGI: > 73.5 µM
SK-MEL-5 melanoma
  GI50: 20.3 µM
  TGI: 50 µM
TK-10 renal
  GI50: > 54.8 µM
  TGI: > 100 µM
CCRF-CEM leukemia
  GI50: 30 µM
  TGI: > 100 µM
M14 melanoma
  GI50: 32.4 µM
  TGI: > 65.3 µM
K-562 leukemia
  GI50: 33.9 µM
  TGI: > 100 µM
HL-60(TB) leukemia
  GI50: 33.7 µM
  TGI: > 100 µM
UACC-257 melanoma
  GI50: 35.1 µM
  TGI: > 80.7 µM
NCI/ADR-RES ovarian
  GI50: 33.3 µM
  TGI: > 100 µM
OVCAR-8 ovarian
  GI50: 50.2 µM
  TGI: > 100 µM
SNB-75 CNS
  GI50: 42.2 µM
  TGI: > 79.9 µM
HCT-116 colon
  GI50: 23.9 µM
  TGI: > 58.2 µM
SW-620 colon
  GI50: > 52.6 µM
  TGI: > 100 µM
HOP-92 NSCLC
  GI50: 16.5 µM
  TGI: > 48.9 µM
COLO 205 colon
  GI50: 32 µM
  TGI: > 57.7 µM
OVCAR-4 ovarian
  GI50: 31.8 µM
  TGI: > 100 µM
HT29 colon
  GI50: 43.3 µM
  TGI: > 100 µM
SF-268 CNS
  GI50: > 52.3 µM
  TGI: > 100 µM
PC-3 prostate
  GI50: 30.3 µM
  TGI: > 100 µM
